{"source": "patent US10682371B2", "about": "“Small molecule conjugates specifically activated in tumor microenvironment for targeting and use thereof” (priority 2014, dated 2020)", "key": {"Human heart": {"tested_on": "Human heart", "format": "biochemical", "conditions": "Human heart; 1 mg/ml, acidized homogenate pH6.0; Paclitaxel release by HPLC"}, "[1]": {"tested_on": "Human fibrosarcoma HT-1080 tumor tissue homogenate", "format": "biochemical", "conditions": "Human fibrosarcoma HT-1080; 1 mg/ml, 100 μg acidized homogenate pH6.0; Paclitaxel release by HPLC", "summary_of_the_method": "(§1)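 Homogenized tissue (100 μg) is acidified to pH6.0. Test compound is then added at 1 mg/ml, and the mixture is held at 37° C so that the proteases present can activate it.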"}, "tumor tissue homogenates": {"tested_on": "tumor tissue homogenates", "format": "biochemical", "summary_of_the_method": "as §1"}, "[2]": {"experiment": "Solubility / formulation test in solvent 1 and solvent 2", "format": "physicochemical"}, "[3]": {"tested_on": "Human prostate cancer PC-3 cells / Panc-1 cells", "experiment": "Tumor treatment in nude mice (PC-3 cells purchased, Panc-1 cells injected; Examples 22, 32, 42)", "format": "in vivo", "summary_of_the_method": "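Nude mice bearing subcutaneous Panc-1 xenografts (5×10^6 cells on the back) were randomized once tumors reached at least 100 mm^3. Drugs were given intravenously once weekly for four weeks, with saline controls. PC-3 cells were grown in DMEM/10% FBS and used within passage 15.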"}, "4T1 cells": {"tested_on": "4T1 cells", "experiment": "BALB/C mice model for tumor metastasis (4T1, lung metastases)", "format": "in vivo", "summary_of_the_method": "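Read-out: lung metastasis count under anatomical microscope after Bouin's staining, day 27. Treatment (IV every three days ×4, saline for controls) started after surgical removal of the ~1.5 cm subcutaneous tumor grown from 10^6 4T1 cells (passage ≤15) in BALB/C mice.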"}, "[4]": {"tested_on": "Human breast cancer MDA-MB435", "experiment": "Multiple tumor models in nude mice: MDA-MB435", "format": "in vivo", "conditions": "Table 29, i.v. 17.6 μmol/kg once weekly for three weeks", "method": "1) Corresponding tumor cells were purchased from American type culture collection (ATCC) and identified according the specification provided by ATCC. Cells were cultivated in DMEM culture solution containing 10% fetal bovine serum at 37° C. and 5% CO2. The cells were passaged for every three days and cells within the 15th passage were used.\n2) Production of tumor. 5×10^6 corresponding cells were subcutaneously injected to the back of the nude mice. Mice were randomly grouped after the tumor reached at least 100 mm^3. Then treatment began and the day on which the treatment began was day 1.\n(§2) 3) Course of treatment. […] The control group was administered by physiological saline. Animals were administered once weekly for three weeks.\n3) Course of treatment. According to the clinical application of A1, A1 was administered in a dose of ⅙ MTD, i.v., 17.6 μmol/kg. The control group was administered by physiological saline. Animals were administered once weekly for three weeks.\n3) Course of treatment. According to the clinical application of B1, B1 was administered in a dose of ⅙ MTD, i.v., 17.6 μmol/kg. The control group was administered by physiological saline. Animals were administered once weekly for three weeks.\nas §2, §2"}, "BALB/C mice": {"tested_on": "BALB/C mice", "experiment": "Maximum tolerated dose (MTD) / acute toxicity by single intravenous injection", "conditions": "for Mortality rate (%) / Number of dead animal: single intravenous injection, 10 BALB/C mice per group"}, "[5]": {"conditions": "Table 26, nude mice, IV once weekly for four weeks, A1-A4 24 mg/kg, Paclitaxel 8 mg/kg, Day 10"}, "[6]": {"conditions": "Table 26, nude mice, IV once weekly for four weeks, A1-A4 24 mg/kg, Paclitaxel 8 mg/kg, Day 24"}, "[7]": {"conditions": "Table 28, BALB/C mice, 4T1, lung metastases day 27, IV every three days for 4 times, A1-A4 12 mg/kg, Paclitaxel 4 mg/kg"}}, "data": [{"smiles": "COCCOCC(=O)NCCCC[C@H](NC(=O)COCCOC)C(=O)N[C@H](C)C(=O)N[C@H](C)C(=O)N[C@H](CC(N)=O)C(=O)Nc1ccc(COC(=O)OC(C(=O)OC2C[C@@]3(O)[C@@H](OC(=O)c4ccccc4)[C@H]4[C@](C)(C(=O)[C@H](OC(C)=O)C(=C2C)C3(C)C)[C@@H](O)CC2OC[C@]24OC(C)=O)[C@@H](NC(=O)c2ccccc2)c2ccccc2)cc1", "note": "(some centres unmarked) [Compound A1]", "values": [{"measurement": "Activation ratio (%) in homogenates from different tumor tissues", "setting": "Human heart", "result": "none"}, {"measurement": "Activation ratio (%) in homogenates from different tumor tissues", "setting": "[1]", "result": 77.7, "unit": "%"}, {"measurement": "Activation efficiency by tumor tissue, in words", "setting": "tumor tissue homogenates", "result": "highest activation efficiency among the screened compounds"}, {"measurement": "solubility in Solvent 1", "setting": "[2]; solvent 1 (injectable water), Table 22, Paclitaxel series", "result": "insoluble"}, {"measurement": "Concentration achieved, completely dissolved in both solvent 1 and solvent 2", "setting": "[2]; solvent 1 injectable water, solvent 2 45% alcohol, 55% injectable water", "result": 10000, "unit": "µg/mL"}, {"measurement": "solubility in Solvent 2", "setting": "[2]; solvent 2 (45% alcohol, 55% injectable water), Table 22, Paclitaxel series", "result": "soluble"}, {"measurement": "Solubility in water, in words", "setting": "[2]; water", "result": "can directly dissolve in water"}, {"measurement": "Size of tumor (mm^3) Day 10", "setting": "[3]; [5]", "result": "85.16 ± 58.4", "unit": "mm^3"}, {"measurement": "inhibitory rate on tumor Day 10", "setting": "[3]; [5]", "result": 71.1, "unit": "%"}, {"measurement": "Size of tumor (mm^3) Day 24", "setting": "[3]; [6]", "result": "89.78 ± 63.7", "unit": "mm^3"}, {"measurement": "inhibitory rate on tumor Day 24", "setting": "[3]; [6]", "result": 76.4, "unit": "%"}, {"measurement": "Inhibition on tumor growth, in words", "setting": "[3]; compared with parent drug group (same molar concentration) and control group", "result": "greatly improved"}, {"measurement": "Inhibitory rate on metastasis", "setting": "4T1 cells; [7]", "result": 97.9, "unit": "%"}, {"measurement": "Number of metastasized tumor", "setting": "4T1 cells; [7]", "result": "3 ± 4"}, {"measurement": "Inhibitory effect on tumor metastasis, in words", "setting": "4T1 cells; compared with parent drug group and control group", "result": "greatly improved"}, {"measurement": "inhibitory rate on tumor (Day 26)", "setting": "[4]", "result": 91.2, "unit": "%"}, {"measurement": "Behaviors and death observed", "setting": "BALB/C mice; BALB/C mice receiving 90 mg/kg injection", "result": "no pilo-erection, hair tousle and lackluster, lethargy, stoop, irritable reaction and death"}, {"measurement": "MTD (maximum tolerated dose)", "setting": "BALB/C mice; BALB/C mice, intravenous injection, one time", "result": "about 90 mg/kg"}, {"measurement": "Mortality rate (%)", "setting": "BALB/C mice; 125 mg/kg", "result": 0, "unit": "%"}, {"measurement": "Number of dead animal", "setting": "BALB/C mice; 125 mg/kg", "result": 0}, {"measurement": "Mortality rate (%)", "setting": "BALB/C mice; 150 mg/kg", "result": 0, "unit": "%"}, {"measurement": "Number of dead animal", "setting": "BALB/C mice; 150 mg/kg", "result": 0}, {"measurement": "Mortality rate (%)", "setting": "BALB/C mice; 175 mg/kg", "result": 0, "unit": "%"}, {"measurement": "Number of dead animal", "setting": "BALB/C mice; 175 mg/kg", "result": 0}, {"measurement": "Mortality rate (%)", "setting": "BALB/C mice; 200 mg/kg", "result": 0, "unit": "%"}, {"measurement": "Number of dead animal", "setting": "BALB/C mice; 200 mg/kg", "result": 0}]}]}
